Measurements reported in the supplement of paper PMC11208160.

Experiment: recombinant UMI read abundance after kanamycin selection (control-corrected) (log10(CPM+1)); higher = more efficient recombination; extreme values may be limits of the assay; sequences stand for … in AGTGCAGAGAAAATCGGCCAGTTTTCTCTGCCTGCAGTCCGCATGCCGTGGGACCCCTTGGGTTCTAACCTGTTGCCTAGATTTATGCAGCGGACTGCCTTTCTCCCAAAGTGATAAACCGG…AGGTTGGTTTCACT; site = the 11-nt donor
How it was run: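 In a pooled Escherichia coli screen for the IS621 bridge recombinase, donor and donor-binding-loop pairs were each placed with a 12-nt UMI on a plasmid bearing a promoterless kanamycin gene. This library was co-electroporated with a target plasmid encoding a fixed target and T7-inducible recombinase, and cells were plated either on IPTG (0.07 mM) plus kanamycin or without selection, in two replicates each. Recombinant UMIs were PCR-amplified across the donor–target junction and sequenced, and counts were converted to CPM, averaged over replicates, scaled by control-derived factors and reported as log10(CPM+1).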
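Further: IS621 bridge recombinase in Escherichia coli cells against a fixed T5 target plasmid.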

First: TATTTGGCATGGACCGGTTTTCCCGGTAATCCGTATTTGGG (site TATTTGGCTCT)
Second: TCAAATTCATGGACCGGTTTTCCCGGTAATCCGTATTTGCC (site TCAAATTCTGG)
The “recombinant UMI read abundance (log10)” value of the first is lower: 0.0188 for the first, 0.558 for the second.

“TCAAATTCATGGACCGGTTTTCCCGGTAATCCGTATTTGCC (site TCCAATTCTGG)” and “TCAAATTCATGGACCGGTTTTCCCGGTAATCCGTATTTGCC (site TCGAATTCTGG)” are the same in “recombinant UMI read abundance (log10)” value: 0 for the first, 0 for the second.

“TCAAATTCATGGACCGGTTTTCCCGGTAATCCGTATTTGCC (site TCTAATTCTGG)” and “TCAACCCCATGGACCGGTTTTCCCGGTAATCCGTATTTGGT (site TCAACCCCTAC)” are the same in “recombinant UMI read abundance (log10)” value: 0 for the first, 0 for the second.

First: TCAACGTCATGGACCGGTTTTCCCGGTAATCCGTATTTGCA (site TCAACGTCTTG)
Second: TCAAGAACATGGACCGGTTTTCCCGGTAATCCGTATTTGGG (site TCAAGAACTCC)
The “recombinant UMI read abundance (log10)” value of the first is lower: 0 for the first, 0.301 for the second.

First: TCACACACATGGACCGGTTTTCCCGGTAATCCGTATTTGAT (site TCACACACTAT)
Second: TCACACACATGGACCGGTTTTCCCGGTAATCCGTATTTGTG (site TCACACACTCA)
The “recombinant UMI read abundance (log10)” value of the first is higher: 1.33 for the first, 0.198 for the second.

Going from “TCACACTCATGGACCGGTTTTCCCGGTAATCCGTATTTGCA (site TCAAACTCTTG)” to “TCACACTCATGGACCGGTTTTCCCGGTAATCCGTATTTGCA (site TCACACTCTTG)”, the “recombinant UMI read abundance (log10)” value rises from 0 to 2.68.

Going from “TCACACTCATGGACCGGTTTTCCCGGTAATCCGTATTTGCA (site TCAGACTCTTG)” to “TCACACTCATGGACCGGTTTTCCCGGTAATCCGTATTTGCA (site TCATACTCTTG)”, the “recombinant UMI read abundance (log10)” value rises from 0 to 1.85.

“TCACGACCATGGACCGGTTTTCCCGGTAATCCGTATTTGTG (site TCACGACCTCA)” and “TCACGGCCATGGACCGGTTTTCCCGGTAATCCGTATTTGGT (site TCACGGCCTAC)” are within 0.2 log units of each other in “recombinant UMI read abundance (log10)” value: 0.0189 for the first, 0.00583 for the second.

Going from “TCACTAACATGGACCGGTTTTCCCGGTAATCCGTATTTGGA (site TCACTAACTTC)” to “TCACTATCATGGACCGGTTTTCCCGGTAATCCGTATTTGCA (site ACAGTATCTTG)”, the “recombinant UMI read abundance (log10)” value falls from 0.957 to 0.

Compared with “TCACTATCATGGACCGGTTTTCCCGGTAATCCGTATTTGCA (site TCACTATCTTG)”, “TCACTCGCATGGACCGGTTTTCCCGGTAATCCGTATTTGAA (site TCACTCGCTTT)” is lower in “recombinant UMI read abundance (log10)” value: 2.41 for the first, 1.86 for the second.

“TCAGACCCATGGACCGGTTTTCCCGGTAATCCGTATTTGGA (site TCAGACCCTTC)” and “TCAGAGACATGGACCGGTTTTCCCGGTAATCCGTATTTGAG (site TCAGAGACTCA)” are within 0.2 log units of each other in “recombinant UMI read abundance (log10)” value: 0.201 for the first, 0.02 for the second.

First: TCAGAGACATGGACCGGTTTTCCCGGTAATCCGTATTTGAG (site TCAGAGACTCC)
Second: TCAGAGACATGGACCGGTTTTCCCGGTAATCCGTATTTGAG (site TCAGAGACTCG)
The “recombinant UMI read abundance (log10)” value of the first is lower: 0.288 for the first, 0.938 for the second.

First: TCAGAGACATGGACCGGTTTTCCCGGTAATCCGTATTTGAG (site TCAGAGACTCT)
Second: TCAGAGACATGGACCGGTTTTCCCGGTAATCCGTATTTGCG (site ACAGAGACTCG)
The “recombinant UMI read abundance (log10)” value of the first is higher: 1.82 for the first, 1.11 for the second.

First: TCAGAGACATGGACCGGTTTTCCCGGTAATCCGTATTTGCG (site CCAGAGACTCG)
Second: TCAGAGACATGGACCGGTTTTCCCGGTAATCCGTATTTGCG (site GCAGAGACTCG)
The “recombinant UMI read abundance (log10)” value of the first is higher: 1.66 for the first, 0.00466 for the second.

Compared with “TCAGAGACATGGACCGGTTTTCCCGGTAATCCGTATTTGCG (site TAAGAGACTCG)”, “TCAGAGACATGGACCGGTTTTCCCGGTAATCCGTATTTGCG (site TCAAAGACTCG)” is higher in “recombinant UMI read abundance (log10)” value: 1.02 for the first, 1.55 for the second.

Compared with “TCAGAGACATGGACCGGTTTTCCCGGTAATCCGTATTTGCG (site TCACAGACTCG)”, “TCAGAGACATGGACCGGTTTTCCCGGTAATCCGTATTTGCG (site TCAGAAACTCG)” is higher in “recombinant UMI read abundance (log10)” value: 0.316 for the first, 1.73 for the second.

First: TCAGAGACATGGACCGGTTTTCCCGGTAATCCGTATTTGCG (site TCAGACACTCG)
Second: TCAGAGACATGGACCGGTTTTCCCGGTAATCCGTATTTGCG (site TCAGAGACTAG)
The “recombinant UMI read abundance (log10)” value of the first is lower: 0.327 for the first, 0.65 for the second.

First: TCAGAGACATGGACCGGTTTTCCCGGTAATCCGTATTTGCG (site TCAGAGACTCA)
Second: TCAGAGACATGGACCGGTTTTCCCGGTAATCCGTATTTGCG (site TCAGAGACTCC)
The “recombinant UMI read abundance (log10)” value of the first is higher: 0.943 for the first, 0.0212 for the second.

First: TCAGAGACATGGACCGGTTTTCCCGGTAATCCGTATTTGCG (site TCAGAGACTCG)
Second: TCAGAGACATGGACCGGTTTTCCCGGTAATCCGTATTTGCG (site TCAGAGACTCT)
The “recombinant UMI read abundance (log10)” value of the first is higher: 2.3 for the first, 0.0281 for the second.

First: TCAGAGACATGGACCGGTTTTCCCGGTAATCCGTATTTGCG (site TCAGAGACTGG)
Second: TCAGAGACATGGACCGGTTTTCCCGGTAATCCGTATTTGCG (site TCAGAGACTTG)
The “recombinant UMI read abundance (log10)” value of the first is lower: 0.387 for the first, 1.84 for the second.

First: TCAGAGACATGGACCGGTTTTCCCGGTAATCCGTATTTGCG (site TCAGAGCCTCG)
Second: TCAGAGACATGGACCGGTTTTCCCGGTAATCCGTATTTGCG (site TCAGAGGCTCG)
The “recombinant UMI read abundance (log10)” value of the first is lower: 0.0106 for the first, 1.98 for the second.

First: TCAGAGACATGGACCGGTTTTCCCGGTAATCCGTATTTGCG (site TCAGAGTCTCG)
Second: TCAGAGACATGGACCGGTTTTCCCGGTAATCCGTATTTGCG (site TCAGATACTCG)
The “recombinant UMI read abundance (log10)” value of the first is higher: 1.37 for the first, 0.784 for the second.

“TCAGAGACATGGACCGGTTTTCCCGGTAATCCGTATTTGCG (site TCAGCGACTCG)” and “TCAGAGACATGGACCGGTTTTCCCGGTAATCCGTATTTGCG (site TCAGGGACTCG)” are within 0.2 log units of each other in “recombinant UMI read abundance (log10)” value: 0.00351 for the first, 0.0144 for the second.

First: TCAGAGACATGGACCGGTTTTCCCGGTAATCCGTATTTGCG (site TCAGTGACTCG)
Second: TCAGAGACATGGACCGGTTTTCCCGGTAATCCGTATTTGCG (site TCATAGACTCG)
The “recombinant UMI read abundance (log10)” value of the first is lower: 0.0233 for the first, 0.524 for the second.

First: TCAGAGACATGGACCGGTTTTCCCGGTAATCCGTATTTGCG (site TCCGAGACTCG)
Second: TCAGAGACATGGACCGGTTTTCCCGGTAATCCGTATTTGCG (site TCGGAGACTCG)
The “recombinant UMI read abundance (log10)” value of the first is lower: 0.462 for the first, 0.836 for the second.

“TCAGAGACATGGACCGGTTTTCCCGGTAATCCGTATTTGCG (site TCTGAGACTCG)” and “TCAGAGACATGGACCGGTTTTCCCGGTAATCCGTATTTGCG (site TGAGAGACTCG)” are within 0.2 log units of each other in “recombinant UMI read abundance (log10)” value: 0.346 for the first, 0.498 for the second.

Going from “TCAGAGACATGGACCGGTTTTCCCGGTAATCCGTATTTGCG (site TTAGAGACTCG)” to “TCAGAGGCATGGACCGGTTTTCCCGGTAATCCGTATTTGCG (site TCAGAGACTCG)”, the “recombinant UMI read abundance (log10)” value falls from 1.56 to 0.431.

Compared with “TCAGAGGCATGGACCGGTTTTCCCGGTAATCCGTATTTGCG (site TCAGAGCCTCG)”, “TCAGAGGCATGGACCGGTTTTCCCGGTAATCCGTATTTGCG (site TCAGAGGCTCG)” is higher in “recombinant UMI read abundance (log10)” value: 0.0967 for the first, 1.26 for the second.

“TCAGAGGCATGGACCGGTTTTCCCGGTAATCCGTATTTGCG (site TCAGAGTCTCG)” and “TCAGGTACATGGACCGGTTTTCCCGGTAATCCGTATTTGCA (site TCAGGTACTTG)” are within 0.2 log units of each other in “recombinant UMI read abundance (log10)” value: 2.18 for the first, 2.02 for the second.

Going from “TCAGGTGCATGGACCGGTTTTCCCGGTAATCCGTATTTGAT (site ACAGGTGCTAT)” to “TCAGGTGCATGGACCGGTTTTCCCGGTAATCCGTATTTGAT (site CCAGGTGCTAT)”, the “recombinant UMI read abundance (log10)” value rises from 0 to 1.06.

First: TCAGGTGCATGGACCGGTTTTCCCGGTAATCCGTATTTGAT (site GCAGGTGCTAT)
Second: TCAGGTGCATGGACCGGTTTTCCCGGTAATCCGTATTTGAT (site TCAGGTGCTAT)
The “recombinant UMI read abundance (log10)” value of the first is lower: 0.018 for the first, 1.74 for the second.

Compared with “TCAGGTTCATGGACCGGTTTTCCCGGTAATCCGTATTTGGA (site TCAGGTTCTTC)”, “TCAGTATCATGGACCGGTTTTCCCGGTAATCCGTATTTGCA (site ACAGTATCTTG)” is lower in “recombinant UMI read abundance (log10)” value: 2.16 for the first, 1.93 for the second.

First: TCAGTATCATGGACCGGTTTTCCCGGTAATCCGTATTTGCA (site CCAGTATCTTG)
Second: TCAGTATCATGGACCGGTTTTCCCGGTAATCCGTATTTGCA (site GCAGTATCTTG)
The “recombinant UMI read abundance (log10)” value of the first is higher: 2.06 for the first, 0.463 for the second.

First: TCAGTATCATGGACCGGTTTTCCCGGTAATCCGTATTTGCA (site TCAGTATCTTG)
Second: TCAGTATCATGGACCGGTTTTCCCGGTAATCCGTATTTGTA (site ACAGTATCTTG)
The “recombinant UMI read abundance (log10)” value of the first is higher: 2.23 for the first, 0.377 for the second.

Going from “TCAGTATCATGGACCGGTTTTCCCGGTAATCCGTATTTGTA (site TCAGTATCTTA)” to “TCAGTCACATGGACCGGTTTTCCCGGTAATCCGTATTTGAG (site TCAGTCACTCT)”, the “recombinant UMI read abundance (log10)” value falls from 2.5 to 0.702.

“TCAGTGACATGGACCGGTTTTCCCGGTAATCCGTATTTGCG (site TCAGAGACTCG)” and “TCAGTGACATGGACCGGTTTTCCCGGTAATCCGTATTTGCG (site TCAGCGACTCG)” are within 0.2 log units of each other in “recombinant UMI read abundance (log10)” value: 0.0602 for the first, 0.00331 for the second.

Going from “TCAGTGACATGGACCGGTTTTCCCGGTAATCCGTATTTGCG (site TCAGGGACTCG)” to “TCAGTGACATGGACCGGTTTTCCCGGTAATCCGTATTTGCG (site TCAGTGACTCG)”, the “recombinant UMI read abundance (log10)” value rises from 0.00386 to 1.21.

For “TCATACTCATGGACCGGTTTTCCCGGTAATCCGTATTTGCG (site TCATACTCTAG)”, the “recombinant UMI read abundance (log10)” value was 0.
